Results taken from patent publication US7722863B2, “Use of granzyme b as an hsp70/hsp70 peptide dependent inducer of apoptosis in tumor cells” (Multimmune GmbH, priority 2002, dated 2010).

Assays:
[1] = test system: Hsp70 membrane-negative CX− cells; experiment: Annexin V-FITC apoptosis assay (flow cytometry); assay type: cell-based, human; conditions: for apoptosis in CX− cells: camptothecin 4 μg/ml or granzyme B 6 ng/ml
Description: (§1) Exponentially growing tumor cells (day 1 after cell passage) were used for granzyme B, camptothecin treatment and as targets in cytotoxicity assays.
(§2) Stock solutions of camptothecin (4 mg/ml, Sigma, Munich, Germany) were diluted in DMSO and stored at 4° C. in the dark. Granzyme B (6 ng/ml, Hölzel Diagnostics, Cologne, Germany) solutions were freshly prepared directly before usage. Exponentially growing cells (0.5-1.5×10^6/ml) were incubated either with camptothecin at a final concentration of 4 μg/ml or with purified, enzymatically active granzyme B (10 ng/ml, 1 μg/ml, 2 μg/ml; 4 μg/ml) (Shi et. al. (2000) Methods in Enzymology 322, 125) for 10 min, and 30 min either at 4° C. or at 37° C. After washing in RPMI-1640 medium binding and uptake was determined in nonpermeabilized and permeabilized tumor cells by flow cytometry and fluorescence microscopy on a Axioscop 25 scanning microscope (Zeiss, Jena, Germany) equipped with a 40× objective and standard filters. Images were treated by multiplicative shading correction using the software Axiovison (Zeiss Vison, Jena, Germany). Granzyme B was visualized in red by using the HC2-PE antibody.
(§3) Apoptotic Cell Death was Determined after Incubation of Tumor Cells with 6 ng/ml Granzyme B for 4 h, 12 h, and 24 h at 37° C. and Washing in RPMI-1640 Medium by Different Apoptosis Assays, as Described Below. Apoptosis Assays
(§4) Annexin V-FITC staining: Briefly, cells were washed twice in Hepes buffer containing 5 mM CaCl2 and incubated with Annexin V-FITC (Roche) for 10 min at room temperature. Annexin V-FITC positively stained cells were measured on a FACSCalibur flow cytometer (Becton Dickinson, Heidelberg, Germany).
(§5) The preceding findings posed the question whether purified granzyme B can induce apoptosis of tumor cells that present Hsp70 on their cell surface. […] As a positive control for apoptosis all cell types were incubated with the topoisomerase inhibitor camptothecin at a concentration of 4 μg/ml. Apoptosis was determined by Annexin V-FITC staining measured by FACS (FACSCalibur, Becton Dickinson, Heidelberg, Germany), DAPI staining and mitochondrial cytochrome c release. Apoptosis was not detected in CX+ and CX− cells incubated with camptothecin (cam) or granzyme B (grB) for 4 h incubation (FIG. 3A). […] It appeared that the colon carcinoma sublines CX+/CX− are better protected towards a camptothecin-mediated cell death as compared to the pancreas carcinoma sublines Colo+/Colo−.

[2] = test system: Hsp70 membrane-negative Colo− cells; experiment: Annexin V-FITC apoptosis assay (flow cytometry); assay type: cell-based, human; conditions: 12 h and 24 h; camptothecin 4 μg/ml or granzyme B 6 ng/ml
Description: as §1, §2, §3, §4, §5

[3] = test system: Hsp70 membrane-positive CX+ cells; experiment: Annexin V-FITC apoptosis assay (flow cytometry); assay type: cell-based, human; conditions: for apoptosis in CX+ cells / amount of Annexin V-FITC positively stained CX+ cells / fold increase of Annexin V-FITC positively stained CX+ cells: camptothecin 4 μg/ml or granzyme B 6 ng/ml; for fold increase of Annexin V-FITC positively stained CX+ cells: versus untreated
Description: as §1, §2, §3, §4, §5

[4] = test system: Hsp70 membrane-positive Colo+ cells; experiment: Annexin V-FITC apoptosis assay (flow cytometry); assay type: cell-based, human; conditions: granzyme B 6 ng/ml
Description: as §1, §2, §3, §4, §5

[5] = test system: Hsp70 membrane-positive leukemic cell line K562; experiment: Annexin V-FITC apoptosis assay (flow cytometry); assay type: cell-based; conditions: granzyme B
Description: as §1, §4
Similarly, a 1.3-fold and a 2.4-fold increase in the amount of Annexin V-FITC positively stained Colo+ cells were observed after 12 h and 24 h, respectively. […] A comparative Annexin V-FITC staining pattern of CX+ and CX− cells treated with granzyme B for 24 h, is illustrated in FIG. 3B. […] The amount of Annexin V-FITC positively stained K562 cells increased from 8.7% up to 16% (1.8-fold).

[6] = test system: Hsp70 membrane-positive CX+ tumor subline; experiment: Cell surface binding and uptake of granzyme B (fluorescence microscopy, flow cytometry); assay type: cell-based, human
[7] = test system: Hsp70 membrane-negative CX− tumor subline; experiment: as above; assay type: cell-based, human; conditions: data not shown
Description: (§6) Cells (0.5×10^6) were fixed in paraformaldehyde (1% PFA in PBS) for 10 min, and permeabilized in PBS containing BSA (0.5%), NaN3 (0.1%), and saponin (0.1%). Then permeabilized cells were incubated either with the granzyme B-phycoerythrin conjugated monoclonal antibody HC2-PE (IgG1; Hölzel Diagnosbka, Cologne, Germany) with an isotype-matched IgG1 control antibody, at 4° C. for 1 h, in the dark. Following washing cells were analysed on a FACSCalibur instrument (Becton Dickinson, Heidelberg, Germany).
as §2
(§7) The preceding findings posed the question whether membrane-bound Hsp70 might enable specific binding and entry of granzyme B into the cytosol. […] A light microscopical analysis of untreated CX+ and Colo+ cells (control) at 4° C. versus 37° C. is shown in the upper row of each panel (FIG. 2A). The corresponding immunofluorescence microscopy of the cells at 4° C. and 37° C. is illustrated below (control). […] (data not shown). […] (FIG. 2B, upper graph). […] However, even at the highest concentration of 4 μg/ml, granzyme B was internalized much more pronounced by Hsp70 membrane-positive as compared to Hsp70-negative tumor cells (CX−/Colo−). Potential ion channels formed by Hsp70 may play a role in the mechansim of selective granzyme B uptake in Hsp70 membrane-positive tumor cells. Indeed, a particular ion conductance pathway was observed after incorporation of vesicles derived from purified phospholipids of Hsp70 membrane-positive (CX+) tumor sublines. This was not seen in vesicles obtained from Hsp70 membrane-negative (CX−) tumor cells (data not shown).

[8] = test system: Hsp70 membrane-negative Colo− tumor subline; experiment: as above; assay type: cell-based, human; conditions: data not shown
Description: as §6, §2, §7

[9] = test system: Hsp70 membrane-positive Colo+ tumor subline; experiment: as above; assay type: cell-based, human
Description: as §6, §2, §7

[10] = test system: CX+/CX− and Colo+/Colo− tumor cells; experiment: Light microscopical analysis of plastic adherence (anoikes); assay type: cell-based, human; conditions: 24 h post-treatment with granzyme B; Hsp70 membrane-positive and -negative lines
Description: In order to exclude apoptosis initiated by anoikes light microscopical analysis of untreated (control), camptothecin (cam) and granzyme B (grB) treated CX+/CX− and Colo+/Colo− tumor cells were performed. […] Regarding these findings we ruled out the possibility that anoikes might be a possible mechanism for the induction of apoptotic cell death in Hsp70 membrane-positive tumor sublines. It is important to note that all apoptosis assays were determined within the adherent cell population following a short term (<1 min) trypsinization.

[11] = 1 μg/ml granzyme B, 30 min, 37° C.
[12] = 15 min at 4° C., granzyme B 2 μg/ml
[13] = temperature shift 4° C. to 37° C., 30 min

## granzyme B
[1]; 4 h incubation
  apoptosis in CX− cells: not detected
[1]; 12 h and 24 h
  apoptosis in CX− cells: neither a 12 h nor a 24 h treatment with granzyme B induces apoptosis
[1]; 24 h granzyme B, FIG. 3B
  amount of apoptotic CX− cells before and after treatment: remained unaltered
[2]
  apoptosis in Colo− cells: neither a 12 h nor a 24 h treatment with granzyme B induces apoptosis
[3]; 4 h incubation
  apoptosis in CX+ cells: not detected
[3]; 12 h, untreated 16.6%
  amount of Annexin V-FITC positively stained CX+ cells: 20.9%
[3]; 12 h
  fold increase of Annexin V-FITC positively stained CX+ cells: 1.3 fold
[3]; 12 h and 24 h
  apoptosis in CX+ cells: apoptosis was observed
[3]; 24 h, untreated 18%
  amount of Annexin V-FITC positively stained CX+ cells: 30.2%
[3]; 24 h
  fold increase of Annexin V-FITC positively stained CX+ cells: 1.8 fold
[3]; 24 h granzyme B, representative analysis FIG. 3B
  fold increase of Annexin V-FITC positively and PI negatively stained CX+ cells: 1.7 fold
[3]; 24 h granzyme B, representative analysis FIG. 3B, untreated control 18%
  amount of Annexin V-FITC positively and propidium iodide (PI) negatively stained CX+ cells: 30%
[4]; 12 h
  fold increase in the amount of Annexin V-FITC positively stained Colo+ cells: 1.3 fold
[4]; 24 h
  fold increase in the amount of Annexin V-FITC positively stained Colo+ cells: 2.4 fold
[5]; untreated 8.7%, data not shown
  amount of Annexin V-FITC positively stained K562 cells: 16%
[5]; versus untreated
  fold increase of Annexin V-FITC positively stained K562 cells: 1.8 fold
[6]; [11]
  granzyme B uptake, flow cytometry of permeabilized cells: faint shift of the granzyme B peak to the right
[6]; 2 μg/ml and 4 μg/ml granzyme B
  granzyme B uptake, flow cytometry of permeabilized cells: dose-dependent increase in granzyme B uptake
[6]; [12]
  granzyme B cell surface binding (immunofluorescence): typical cell surface staining, was detected
[6]; [13]
  granzyme B uptake, cytoplasmic staining (immunofluorescence): resulted in uptake of granzyme B
[7]; 4° C.
  granzyme B cell surface binding (immunofluorescence): either exhibited any granzyme B cell surface binding at 4 °C
[7]; 37° C.
  granzyme B uptake (immunofluorescence): nor uptake at 37 °C
[8]; 4° C.
  granzyme B cell surface binding (immunofluorescence): either exhibited any granzyme B cell surface binding at 4 °C
[8]; 37° C.
  granzyme B uptake (immunofluorescence): nor uptake at 37 °C
[9]; [11]
  granzyme B uptake, flow cytometry of permeabilized cells: faint shift of the granzyme B peak to the right
[9]; 2 μg/ml and 4 μg/ml granzyme B
  granzyme B uptake, flow cytometry of permeabilized cells: dose-dependent increase in granzyme B uptake
[9]; [12]
  granzyme B cell surface binding (immunofluorescence): typical cell surface staining, was detected
[9]; [13]
  granzyme B uptake, cytoplasmic staining (immunofluorescence): resulted in uptake of granzyme B
[10]
  loss in plastic adherence: neither Hsp70 membrane-positive nor -negative tumor cell lines exhibited any signs of loss in plastic adherence
